Article PMC7645381, “Development and application of a high-throughput screening assay for identification of small molecule inhibitors of the P. falciparum reticulocyte binding-like homologue 5 protein” (International Journal for Parasitology: Drugs and Drug …, 2020)
Structures can show the parent of a compound that is named as a salt. Where two headings read alike, the source gives them in different places.

What was measured:
[1] = test system: P. falciparum 3D7 parasites; test: P. falciparum parasite viability assay (LDH); assay type: cell-based
Description: A modified version of the lactate dehydrogenase (LDH) assay described by [Gamo et al. […] Compounds were pre-dispensed in 384-well plates, RPMI/Albumax growth media was added, and P. falciparum inoculated. Plates were incubated for 72 h and then frozen at −80 °C overnight. LDH activity was quantified with the modified cofactor 3-acetylpyridine adenine dinucleotide (APAD) (Sigma Aldrich) by measuring absorbance of the tetrazolium indicator nitro blue tetrazolium (NBT) (Sigma Aldrich) at 650 nm. Parasite conditions: […] Growth inhibition assay: […] Intermediate compound dilution plates were prepared by dispensing 5 μL from each well of the compound master plate into 11.5 μL of RPMI/Albumax growth media. Duplicate assay plates (384-well) were then prepared by dispensing 0.5 μL of compound from the intermediate dilution plates into 9.5 μL of RPMI/Albumax growth media. […] The final DMSO concentration was 0.1% (to limit toxicity to parasites). […] Evaluation of parasite growth measuring lactate dehydrogenase (LDH) activity: After 72 h of incubation, plates were frozen at −80 °C overnight and then thawed at room temperature for at least 4 h. […] Plates were shaken to ensure mixing and absorbance at 650 nm was monitored using a PerkinElmer Envision plate reader after 30 min of incubation at room temperature. Data were normalised to percent growth inhibition using positive and negative controls and analyzed using TIBCO Spotfire software.

[2] = biological target: T1, P. falciparum Rh5 (Rh5 – basigin interaction) (Plasmodium falciparum, UniProt Q8IFM5); test: biochemical; assay type: binding; details: for Rh5 inhibitory activity in the AlphaScreen assay: highest concentration tested 50 μM
HepG2 cells = test: HepG2 growth inhibition assay; assay type: cell-based; details: Homo sapiens, 10-point dilution series, 48 h, Cell Titre-Glo
Description: HepG2 cells were cultured in Dulbeccos modified eagle's medium (DMEM) supplemented with 10% fetal calf serum (FCS), in a humidified incubator at 37 °C and 5% CO2. Ten-point compound titration assays were performed by treating cells (1 × 10^3) for 48 h in 384 well tissue culture treated plates (Greiner). Cytotoxicity was determined using Cell Titer Glo (Promega) and calculated as a percentage using DMSO as a positive growth control and 10 μM Bortezomib as a negative growth control. EC50 values were calculated using a 4-parameter log dose, non-linear regression analysis, with sigmoidal dose response (variable slope) curve fit using Graph Pad Prism (version 6.05). 0 and 100 constraint parameters were used for curve fitting. […]

[3] = AlphaScreen TruHits counterscreen assay; details: TruHits counterscreen, single point, 10 μM in duplicate
Description: The counterscreen assay was conducted using AlphaScreen TruHits kit (PerkinElmer). Biotinylated acceptor beads and Streptavidin donor beads were both diluted in assay buffer (final concentration of 10 μg/mL). Using the Combi-multidrop, 10 μL of each bead solution (20 μg/mL prepared in assay buffer) was added to every well of the assay plate under subdued lighting. Compound addition and assay readout was performed as described above.

[4] = biological target: T1, P. falciparum Rh5 (Rh5 – basigin interaction); test: biochemical; design: AlphaScreen of Rh5 - His-tagged basigin interaction with anti-Rh5 mAb beads; inhibition of luminescence signal; details: Batch Reference=01, primary pilot screen, single point
Description: Using the Combi-multidrop, 5 μL of Rh5 stock solution (200 nM prepared in assay buffer) was added to columns 1–24 of the 384-well assay plate (Greiner 384-well white, low binding plate, #784904, Bioone). The PerkinElmer Janus automated dispensing system was then employed to transfer, via the pin-tool, 2 × 100 nL of the compound stock DMSO solution from the compound master plate to the assay plate. The plate was sealed and incubated for 30 min at room temperature. Using a Combi-multidrop, 5 μL of hexa-histidine tagged basigin stock solution (80 nM prepared in assay buffer) was then added to columns 1–23 and 5 μL assay buffer to column 24 of the 384-well assay plate. The plate was sealed again and incubated for 30 min at room temperature. A solution of AlphaScreen donor and acceptor beads (20 μg/mL prepared in assay buffer) plus anti-Rh5 mAb solution (2 μg/mL prepared in assay buffer) was prepared in assay buffer under subdued lighting. Using the Combi-multidrop, 10 μL of this solution was added to every well of the assay plate under subdued lighting. The plate was sealed with foil (plate max) and incubated at room temperature for 1 h. The assay plate was then analysed on the PerkinElmer Envision 2103 Multilabel Plate Reader (Ex 680, Em 520–620 nm). The optimised Rh5 AlphaScreen assay was then validated for HT screening purposes by conducting a pilot screen using known drug library (from Prestwick, Tocris and LOPAC) and the MMV Malaria Box, comprising 3708 and 400 compounds (Fig. 1), respectively. Historically, PPIs are notoriously difficult to target with small molecules. To enhance the likelihood of identifying an inhibitor of the Rh5 - basigin interaction the primary screen was conducted at a compound concentration of 20 μM. A 20 μM screening concentration is considered high, when compared to the commonly used primary screen concentrations of approximately 1–10 μM. To follow-up on hit compounds from the pilot validation screen, we next wanted to confirm the activity of the primary hits. To do this, a two-phase hit confirmation and counterscreen process was undertaken (Fig. 1). In the first phase, the 231 primary hits from both libraries were evaluated in the Rh5 AlphaScreen assay and counterscreen assay. Both assays were undertaken at 10 μM in duplicate. The counterscreen assay was conducted using AlphaScreen TruHits. […] The 45 secondary hits can be viewed in the top left quadrant of Fig. S8. Of the 45 hits, 13 compounds originated from the Malaria Box and 32 compounds from the known drug library.

[5] = biological target: T1, P. falciparum Rh5 (Rh5 – basigin interaction); test: biochemical; design: AlphaScreen of Rh5 - His-tagged basigin interaction with anti-Rh5 mAb beads; inhibition of luminescence signal; details: Batch Reference=01, confirmation screen, duplicate
Description: Using the Combi-multidrop, 5 μL of Rh5 stock solution (200 nM prepared in assay buffer) was added to columns 1–24 of the 384-well assay plate (Greiner 384-well white, low binding plate, #784904, Bioone). The PerkinElmer Janus automated dispensing system was then employed to transfer, via the pin-tool, 2 × 100 nL of the compound stock DMSO solution from the compound master plate to the assay plate. The plate was sealed and incubated for 30 min at room temperature. Using a Combi-multidrop, 5 μL of hexa-histidine tagged basigin stock solution (80 nM prepared in assay buffer) was then added to columns 1–23 and 5 μL assay buffer to column 24 of the 384-well assay plate. The plate was sealed again and incubated for 30 min at room temperature. A solution of AlphaScreen donor and acceptor beads (20 μg/mL prepared in assay buffer) plus anti-Rh5 mAb solution (2 μg/mL prepared in assay buffer) was prepared in assay buffer under subdued lighting. Using the Combi-multidrop, 10 μL of this solution was added to every well of the assay plate under subdued lighting. The plate was sealed with foil (plate max) and incubated at room temperature for 1 h. The assay plate was then analysed on the PerkinElmer Envision 2103 Multilabel Plate Reader (Ex 680, Em 520–620 nm). […] Historically, PPIs are notoriously difficult to target with small molecules. To enhance the likelihood of identifying an inhibitor of the Rh5 - basigin interaction the primary screen was conducted at a compound concentration of 20 μM. A 20 μM screening concentration is considered high, when compared to the commonly used primary screen concentrations of approximately 1–10 μM. […] To do this, a two-phase hit confirmation and counterscreen process was undertaken (Fig. 1). […] Both assays were undertaken at 10 μM in duplicate. The counterscreen assay was conducted using AlphaScreen TruHits.

D10-PfPHG parasites = test: Schizont rupture assay; assay type: cell-based, P. falciparum; details: 50 and 100 μM, 6 h, flow cytometry
Description: D10-PfPHG parasites ([Wilson et al., 2010]) were cultured in human O^+ erythrocytes in RPMI-HEPES culture medium (pH 7.4, 50 μg/mL hypoxanthine, 25 mM NaHCO3, 20 μg/mL gentamicin, 0.5% Albumax II (Thermo Fisher Scientific) according to established protocols ([Trager and Jensen, 1976]) and maintained in an atmosphere of 1% O2, 4% CO2 and 95% N2. For assessment of merozoite invasion after schizont rupture, parasites were tightly synchronised to a 4 h window of invasion using heparin ([Boyle et al., 2010]; [Wilson et al., 2015]) and then grown for a further 42 h. Drug treatments were setup at 2–3% parasitaemia and 1% haematocrit in 50 μL volumes with a 1 in 10 dilution of drug added when parasites were 44–48 h post invasion. After 6 h of drug treatment and immediately after invasion was expected to finish, the assays were treated with 5 μg/mL ethidium bromide (EtBr, Bio-Rad) for 5 min prior to flow cytometry assessment of parasitaemia using a Becton Dickinson Accuri. Gating of newly invaded rings, free merozoites and unruptured late stages was achieved as per published methods ([Wilson et al., 2013]).
To determine if the modest activity of pranlukast and analogues in the parasite viability assay was a consequence of invasion inhibition, rather than inhibition at another stage of blood stage parasite development, we performed an assay that measures the effect of compound treatment on P. falciparum D10 asexual stage transition between late schizont and ring stages ([Wilson et al., 2013]). In this assay, highly synchronised mature schizont-stage parasites were incubated with pranlukast and selected analogues at 50 and 100 μM and the transition to newly invaded ring stage parasites was quantified by flow cytometry. In parallel, the rate of schizont rupture and merozoite release was quantified to assess whether any reduction in newly invaded ring stages was due to a block affecting merozoite release or development. […] Neither DMSO (at the maximal concentration used for the drug treatments of 0.1%) or a non-invasion inhibitory mAb control caused a reduction in merozoite invasion. […] […].

[6] = Plasmodium falciparum, 3D7, 72 h, LDH activity, 10-point dilution series, 72 h, read-out: P. falciparum 3D7 EC50
[7] = LDH activity, 10-point dilution series, 72 h, read-out: P. falciparum 3D7 EC50

T1 sequence (Q8IFM5 24-526): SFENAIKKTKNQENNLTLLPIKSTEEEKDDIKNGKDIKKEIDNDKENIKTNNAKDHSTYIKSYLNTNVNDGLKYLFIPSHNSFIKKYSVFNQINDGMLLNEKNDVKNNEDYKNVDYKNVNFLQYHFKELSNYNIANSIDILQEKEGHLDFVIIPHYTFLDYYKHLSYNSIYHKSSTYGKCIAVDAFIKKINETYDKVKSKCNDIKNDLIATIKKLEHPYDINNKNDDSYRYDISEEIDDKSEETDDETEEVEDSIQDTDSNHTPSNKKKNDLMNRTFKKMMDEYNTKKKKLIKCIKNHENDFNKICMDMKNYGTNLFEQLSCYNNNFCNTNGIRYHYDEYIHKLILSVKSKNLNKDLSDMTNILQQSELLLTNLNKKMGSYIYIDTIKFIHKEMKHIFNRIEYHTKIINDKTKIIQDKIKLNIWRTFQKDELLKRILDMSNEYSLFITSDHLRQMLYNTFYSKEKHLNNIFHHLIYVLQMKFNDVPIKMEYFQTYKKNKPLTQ

Molecule | EC50 [1, 6] [µM] | EC50 (HepG2 cells) [µM] | inhibition at 20 µM [4] [%] | inhibition at 10 µM [5] [%] | further results
C[C@H]1CCC/C=C/[C@@H]2C[C@H](O)C[C@H]2[C@H](O)/C=C/C(=O)O1 [Brefeldin A, reference compound] | 3.5 | – | – | – | –
CCN(CC)CCCC(C)Nc1ccnc2cc(Cl)ccc12 (stereo not shown) [Chloroquine, reference compound] | – | – | – | – | EC50 ([1]; Plasmodium falciparum, 3D7, 72 h, read-out: P. falciparum 3D7 EC50, control, LDH activity, 72 h): 0.018 µM
COc1ccc(C(=O)Nc2cccc3c(=O)cc(C(=O)O)oc23)cc1 [Compound 21, 8-(4-Methoxybenzamido)-4-oxo-4H-chromene-2-carboxylic acid] | > 50 | > 50 | – | – | IC50 [2]: > 50 µM; Rh5 inhibitory activity in the AlphaScreen assay [2]: No activity
COc1ccc(C(=O)Nc2cccc3c(=O)cc(-c4nn[nH]n4)oc23)cc1 [Compound 24, 4-Methoxy-N-(4-oxo-2-(2H-tetrazol-5-yl)-4H-chromen-8-yl)benzamide] | 25 | > 50 | – | – | IC50 [2]: > 50 µM
O=C(Nc1cccc2c(=O)cc(-c3nn[nH]n3)oc12)c1ccc(OCCCc2ccccc2)cc1 [Compound 25, N-(4-Oxo-2-(2H-tetrazol-5-yl)-4H-chromen-8-yl)-4-(3-phenylpropoxy)benzamide] | 7 | > 50 | – | – | IC50 [2]: 20 µM; EC50 [1, 7]: 7.3 µM
CCCc1c(OCC(O)COc2ccc3c(=O)cc(C(=O)O)oc3c2CCC)ccc(C(C)=O)c1O (stereo not shown) [FPL 55712, reference compound] | – | > 50 | – | – | EC50 ([1]; Plasmodium falciparum, 3D7, 72 h, read-out: P. falciparum 3D7 EC50): > 50 µM
Oc1c(Cl)cc(Cl)c(Cl)c1Cc1c(O)c(Cl)cc(Cl)c1Cl [WEHI-0104268, Hexachlorophene, reference compound] | – | – | – | – | % Inhibition Counter [3]: 28.8475%
O=C(O)Cc1cccc(OCCCN(Cc2cccc(C(F)(F)F)c2Cl)CC(c2ccccc2)c2ccccc2)c1 [WEHI-1216231, GW 3965 hydrochloride] | – | – | 57.8 | 51.1 | –
CN1CCc2cccc3c2[C@H]1Cc1ccc(O)c(O)c1-3 [WEHI-1216442, (R)-(-)-Apomorphine hydrochloride] | – | – | 70.8 | 76.5 | –
O=C1C=CC(=O)c2c1ccc1c2ccc2ccccc21 [WEHI-1216729, Chrysene-1,4-quinone] | – | – | 56.6 | 71 | –
CC[N+](C)(CC)CCC[n+]1c(-c2ccccc2)c2cc(N)ccc2c2ccc(N)cc21 [WEHI-1216760, Propidium iodide] | – | – | 55.7 | 77 | –
NCCNCCNCCNCCN [WEHI-1217021, Tetraethylenepentamine pentahydrochloride] | – | – | 96.2 | 96.9 | –
CN1CCc2cccc3c2[C@H]1Cc1ccc(O)c(O)c1-3 [WEHI-1217165, R(-) Apomorphine hydrochloride hemihydrate] | – | – | – | – | % Inhibition Pilot ([4]; 20 µM, inhibitor, % Inhibition Pilot): 61.89%; % Inhibition Confirmation ([5]; 10 µM, inhibitor, % Inhibition Confirmation): 62.575%
COCCCOc1ccnc(C[S+]([O-])c2nc3ccccc3[nH]2)c1C (stereo not shown) [rabeprazole] | – | – | 59.6 | 68 | –
COc1cc(C(=O)NS(=O)(=O)c2ccccc2C)ccc1Cc1cn(C)c2ccc(NC(=O)OC3CCCC3)cc12 [zafirlukast, reference compound] | 6 | > 50 | – | – | IC50 [2]: 17 µM; Rh5 inhibitory activity in the AlphaScreen assay [2]: possess inhibitory activity; EC50 [1, 7]: 5.9 µM
heparin | – | – | – | – | free merozoite numbers (D10-PfPHG parasites): not free merozoites; merozoite invasion (newly invaded early ring stages) (D10-PfPHG parasites): reduction in the number of early rings stage parasites
